Test results published in ChEMBL document CHEMBL1201862, “PubChem BioAssay data set” (2004).
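Five compound concentrations were applied to cells in 96-well plates for 48 hours; endpoints were derived by simple linear interpolation of the resulting dose-response curve. The concentration for 50% growth inhibition is given as GI50.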 Activity calls are given as the source filed them. No stated cut-off is given here; in the data, active = GI50 up to about 1.1 µM and inactive = higher.

Key:
Experiment in all cases: growth of human tumour cells (NCI), 48 h
786-0 = system: 786-0
A498 = system: A498
A549 = system: A549
ACHN = system: ACHN
EKVX = system: EKVX
HCC 2998 = system: HCC 2998
HCT-116 = system: HCT-116
HL-60 = system: HL-60
K562 = system: K562
KM12 = system: KM12
M14 = system: M14
Malme-3M = system: Malme-3M
NCI-H226 = system: NCI-H226
OVCAR-4 = system: OVCAR-4
RPMI-8226 = system: RPMI-8226
SF-268 = system: SF-268
SNB-75 = system: SNB-75
UACC-62 = system: UACC-62

Measured: GI50

Cc1c(C(=O)CC(=O)C(=O)Nc2ccc(Cl)c(Cl)c2)[n+]([O-])c2ccccc2[n+]1[O-]
inactive: 786-0 25.8 µM | A498 > 100 µM | A549 27 µM | ACHN 20.3 µM | EKVX 12.5 µM | HCC 2998 33 µM | HCT-116 19 µM | HL-60 17.8 µM | K562 23.8 µM | KM12 25.1 µM | M14 18.1 µM | Malme-3M 18.8 µM | NCI-H226 > 100 µM | OVCAR-4 15.2 µM | RPMI-8226 20.8 µM | SF-268 29.1 µM | SNB-75 18.9 µM | UACC-62 17.3 µM

O=C1CCC2(CC1)SCCCS2
inactive: 786-0 > 100 µM | A498 > 100 µM | A549 > 100 µM | ACHN 40 µM | EKVX > 100 µM | HCC 2998 > 100 µM | HL-60 > 100 µM | K562 > 100 µM | KM12 > 100 µM | M14 > 100 µM | Malme-3M > 100 µM | NCI-H226 > 100 µM | OVCAR-4 > 100 µM | RPMI-8226 > 100 µM | SF-268 > 100 µM | SNB-75 61.1 µM | UACC-62 > 100 µM

Cc1cc(Cl)ccc1NC(=O)/C(=N\NC(C)(C)C)C(C#N)c1nc(-c2ccc([N+](=O)[O-])cc2)cs1 (stereo not given)
inactive: 786-0 > 100 µM | A498 > 100 µM | A549 > 100 µM | ACHN > 100 µM | EKVX > 100 µM | HCC 2998 > 100 µM | HCT-116 > 100 µM | HL-60 > 100 µM | K562 > 100 µM | KM12 > 100 µM | M14 > 100 µM | Malme-3M > 100 µM | NCI-H226 > 100 µM | OVCAR-4 > 100 µM | RPMI-8226 > 100 µM | SF-268 > 100 µM | SNB-75 > 100 µM | UACC-62 > 100 µM

CC1(O)C(C)(O)C2(C)O[Te]3(OC12C)OC1(C)C(C)(O)C(C)(O)C1(C)O3 (stereo not given)
inactive: 786-0 56.8 µM | A498 > 10 µM | A549 6.67 µM | ACHN 31.3 µM | EKVX > 100 µM | HCC 2998 42.7 µM | HL-60 10.6 µM | K562 9.79 µM | KM12 23.7 µM | M14 > 100 µM | Malme-3M 96.2 µM | NCI-H226 29.4 µM | OVCAR-4 24.3 µM | RPMI-8226 15.5 µM | SF-268 > 10 µM | SNB-75 > 100 µM | UACC-62 35.6 µM

Oc1ccccc1/C=C/c1csnn1
inactive: 786-0 > 31.6 µM | A498 > 100 µM | A549 > 100 µM | ACHN > 100 µM | EKVX > 100 µM | HCC 2998 > 100 µM | HCT-116 98.4 µM | HL-60 39.4 µM | K562 > 100 µM | KM12 > 100 µM | M14 > 100 µM | Malme-3M > 100 µM | NCI-H226 > 100 µM | OVCAR-4 > 100 µM | RPMI-8226 > 100 µM | SF-268 > 100 µM | SNB-75 > 100 µM | UACC-62 > 100 µM

CC(C(=O)c1ccc(Cl)cc1)C1OC(=O)C(Cl)=C1Cl (stereo not given)
inactive: 786-0 21.2 µM | A498 41.5 µM | A549 > 100 µM | ACHN 41.3 µM | EKVX 39.4 µM | HCC 2998 26.6 µM | HL-60 19 µM | K562 25.2 µM | KM12 33.9 µM | M14 34.1 µM | Malme-3M 21.4 µM | NCI-H226 68.2 µM | OVCAR-4 25.7 µM | RPMI-8226 26.9 µM | SF-268 30.3 µM | SNB-75 22.1 µM | UACC-62 19.7 µM
